Laboratory results taken from US20040034040A1, “Use of thienopyrimidines” (priority 2000, published 2004).
Structures can show the parent of a compound that is named as a salt.

Work on `COc1ccc(CNc2nc(CCC(=O)O)nc3sc4c(c23)CCCC4)cc1Cl` (as salt: salt) [Example 2, 3-[4-(3-chloro-4-methoxybenzylamino)-5,6,7,8-tetrahydro-[1]-benzothieno-[2,3-d]-pyrimidin-2-yl]propionic acid] yielded a melting point of 229 °C.
